#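 Five compound concentrations were applied to cells in 96-well plates for 48 hours; endpoints were derived by simple linear interpolation of the resulting dose-response curve. TGI marks complete inhibition of growth.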
# How the values were obtained:
# Test in all cases: NCI tumour cell line growth inhibition, 48 h
# CCRF-CEM leukemia = system: CCRF-CEM leukemia
# KM20L2 colon = system: KM20L2 colon
# SW-620 colon = system: SW-620 colon
# SK-OV-3 ovarian = system: SK-OV-3 ovarian
# SF-295 CNS = system: SF-295 CNS
# KM12 colon = system: KM12 colon
# NCI-H23 lung = system: NCI-H23 lung
# A549 NSCLC = system: A549 NSCLC
# A498 renal = system: A498 renal
# SNB-75 CNS = system: SNB-75 CNS
# HL-60(TB) leukemia = system: HL-60(TB) leukemia
# HCT-15 colon = system: HCT-15 colon
# HOP-92 NSCLC = system: HOP-92 NSCLC
# RXF-631 renal = system: RXF-631 renal
# LOX IMVI melanoma = system: LOX IMVI melanoma
# SN12C renal = system: SN12C renal
# DLD-1 colon = system: DLD-1 colon
# 786-0 renal = system: 786-0 renal
# CAKI-1 renal = system: CAKI-1 renal
# M14 melanoma = system: M14 melanoma
# OVCAR-4 ovarian = system: OVCAR-4 ovarian
# OVCAR-5 ovarian = system: OVCAR-5 ovarian
# TK-10 renal = system: TK-10 renal
# HT29 colon = system: HT29 colon
# OVCAR-3 ovarian = system: OVCAR-3 ovarian
# NCI-H460 lung = system: NCI-H460 lung
# COLO 205 colon = system: COLO 205 colon
# HOP-18 NSCLC = system: HOP-18 NSCLC
# SK-MEL-28 melanoma = system: SK-MEL-28 melanoma
# K-562 leukemia = system: K-562 leukemia
# SK-MEL-2 melanoma = system: SK-MEL-2 melanoma
# M19-MEL melanoma = system: M19-MEL melanoma
# ACHN renal = system: ACHN renal
# SF-539 CNS = system: SF-539 CNS
# SNB-19 CNS = system: SNB-19 CNS
# RPMI-8226 leukemia = system: RPMI-8226 leukemia
# XF 498 CNS = system: XF 498 CNS
# LXFL 529 NSCLC = system: LXFL 529 NSCLC
# UACC-257 melanoma = system: UACC-257 melanoma
# HCC-2998 colon = system: HCC-2998 colon
# IGROV1 ovarian = system: IGROV1 ovarian
# SF-268 CNS = system: SF-268 CNS
# OVCAR-8 ovarian = system: OVCAR-8 ovarian
# U251 CNS = system: U251 CNS
# SK-MEL-5 melanoma = system: SK-MEL-5 melanoma
# MOLT-4 leukemia = system: MOLT-4 leukemia
# UACC-62 melanoma = system: UACC-62 melanoma
# UO-31 renal = system: UO-31 renal
# RXF 393 renal = system: RXF 393 renal
# NCI-H522 lung = system: NCI-H522 lung
# EKVX NSCLC = system: EKVX NSCLC
# MALME-3M melanoma = system: MALME-3M melanoma
# DMS 273 small cell lung = system: DMS 273 small cell lung
# MDA-MB-435 = system: MDA-MB-435
# HOP-62 NSCLC = system: HOP-62 NSCLC
# T-47D breast = system: T-47D breast
# SR leukemia = system: SR leukemia
# MCF7 breast = system: MCF7 breast
# PC-3 prostate = system: PC-3 prostate
# HCT-116 colon = system: HCT-116 colon
# NCI/ADR-RES ovarian = system: NCI/ADR-RES ovarian
# SNB-78 CNS = system: SNB-78 CNS
# MDA-N = system: MDA-N
# DU-145 prostate = system: DU-145 prostate
# DMS 114 small cell lung = system: DMS 114 small cell lung
# BT-549 breast = system: BT-549 breast
# HS 578T breast = system: HS 578T breast
# NCI-H226 lung = system: NCI-H226 lung
# MDA-MB-231 breast = system: MDA-MB-231 breast
structure (smiles),measurement,setting,value
COc1ccc(C(=O)Nc2ccc(S(=O)(=O)NCC(=O)O)cc2)cc1,TGI,CCRF-CEM leukemia,> 100 µM
same,TGI,KM20L2 colon,> 100 µM
same,TGI,SW-620 colon,> 100 µM
same,TGI,SK-OV-3 ovarian,> 100 µM
same,TGI,SF-295 CNS,> 100 µM
same,TGI,KM12 colon,> 100 µM
same,TGI,NCI-H23 lung,> 100 µM
same,TGI,A549 NSCLC,> 100 µM
same,TGI,A498 renal,> 100 µM
same,TGI,SNB-75 CNS,> 100 µM
same,TGI,HL-60(TB) leukemia,> 100 µM
same,TGI,HCT-15 colon,> 100 µM
same,TGI,HOP-92 NSCLC,> 100 µM
same,TGI,RXF-631 renal,> 100 µM
same,TGI,LOX IMVI melanoma,> 100 µM
same,TGI,SN12C renal,> 100 µM
same,TGI,DLD-1 colon,> 100 µM
same,TGI,786-0 renal,> 100 µM
same,TGI,CAKI-1 renal,> 100 µM
same,TGI,M14 melanoma,> 100 µM
same,TGI,OVCAR-4 ovarian,> 100 µM
same,TGI,OVCAR-5 ovarian,> 100 µM
same,TGI,TK-10 renal,> 100 µM
same,TGI,HT29 colon,> 100 µM
same,TGI,OVCAR-3 ovarian,> 100 µM
same,TGI,NCI-H460 lung,> 100 µM
same,TGI,COLO 205 colon,> 100 µM
same,TGI,HOP-18 NSCLC,> 100 µM
same,TGI,SK-MEL-28 melanoma,> 100 µM
same,TGI,K-562 leukemia,> 100 µM
same,TGI,SK-MEL-2 melanoma,> 100 µM
same,TGI,M19-MEL melanoma,> 100 µM
same,TGI,ACHN renal,> 100 µM
same,TGI,SF-539 CNS,> 100 µM
same,TGI,SNB-19 CNS,> 100 µM
same,TGI,RPMI-8226 leukemia,> 100 µM
same,TGI,XF 498 CNS,> 100 µM
same,TGI,LXFL 529 NSCLC,> 100 µM
same,TGI,UACC-257 melanoma,> 100 µM
same,TGI,HCC-2998 colon,> 100 µM
same,TGI,IGROV1 ovarian,> 100 µM
same,TGI,SF-268 CNS,> 100 µM
same,TGI,OVCAR-8 ovarian,> 100 µM
same,TGI,U251 CNS,> 100 µM
same,TGI,SK-MEL-5 melanoma,> 100 µM
same,TGI,MOLT-4 leukemia,> 100 µM
same,TGI,UACC-62 melanoma,> 100 µM
same,TGI,UO-31 renal,> 100 µM
same,TGI,RXF 393 renal,> 100 µM
same,TGI,NCI-H522 lung,> 100 µM
same,TGI,EKVX NSCLC,> 100 µM
same,TGI,MALME-3M melanoma,> 100 µM
same,TGI,DMS 273 small cell lung,> 100 µM
C=C(CN(C)C)C(=O)c1ccc(C)cc1C,TGI,CCRF-CEM leukemia,2.14 µM
same,TGI,KM20L2 colon,39 µM
same,TGI,SW-620 colon,13.5 µM
same,TGI,SK-OV-3 ovarian,39.6 µM
same,TGI,SF-295 CNS,31.6 µM
same,TGI,KM12 colon,31 µM
same,TGI,NCI-H23 lung,27.3 µM
same,TGI,A549 NSCLC,63.1 µM
same,TGI,A498 renal,33.7 µM
same,TGI,MDA-MB-435,17.1 µM
same,TGI,SNB-75 CNS,34.9 µM
same,TGI,HL-60(TB) leukemia,11.6 µM
same,TGI,HOP-62 NSCLC,47.5 µM
same,TGI,HCT-15 colon,12.5 µM
same,TGI,HOP-92 NSCLC,10.4 µM
same,TGI,RXF-631 renal,36.9 µM
same,TGI,LOX IMVI melanoma,15.2 µM
same,TGI,T-47D breast,18.6 µM
same,TGI,SN12C renal,33.4 µM
same,TGI,DLD-1 colon,14.2 µM
same,TGI,SR leukemia,4.26 µM
same,TGI,MCF7 breast,13.9 µM
same,TGI,PC-3 prostate,31.1 µM
same,TGI,786-0 renal,12.5 µM
same,TGI,HCT-116 colon,13 µM
same,TGI,CAKI-1 renal,8.39 µM
same,TGI,NCI/ADR-RES ovarian,40.3 µM
same,TGI,M14 melanoma,14.5 µM
same,TGI,SNB-78 CNS,60.4 µM
same,TGI,OVCAR-4 ovarian,33.5 µM
same,TGI,OVCAR-5 ovarian,31.1 µM
same,TGI,TK-10 renal,22.2 µM
same,TGI,MDA-N,14.3 µM
same,TGI,HT29 colon,36.6 µM
same,TGI,OVCAR-3 ovarian,21.3 µM
same,TGI,NCI-H460 lung,46.9 µM
same,TGI,COLO 205 colon,11.3 µM
same,TGI,HOP-18 NSCLC,30.3 µM
same,TGI,SK-MEL-28 melanoma,20.4 µM
same,TGI,K-562 leukemia,9.74 µM
same,TGI,SK-MEL-2 melanoma,37 µM
same,TGI,M19-MEL melanoma,43.1 µM
same,TGI,ACHN renal,19.3 µM
same,TGI,DU-145 prostate,33.5 µM
same,TGI,SF-539 CNS,30 µM
same,TGI,SNB-19 CNS,57.7 µM
same,TGI,DMS 114 small cell lung,46.6 µM
same,TGI,BT-549 breast,12.7 µM
same,TGI,RPMI-8226 leukemia,> 100 µM
same,TGI,XF 498 CNS,27.6 µM
same,TGI,LXFL 529 NSCLC,26.9 µM
same,TGI,UACC-257 melanoma,24.8 µM
same,TGI,HCC-2998 colon,31.5 µM
same,TGI,IGROV1 ovarian,17.7 µM
same,TGI,SF-268 CNS,35.4 µM
same,TGI,OVCAR-8 ovarian,37.4 µM
same,TGI,HS 578T breast,> 79 µM
same,TGI,U251 CNS,47.8 µM
same,TGI,SK-MEL-5 melanoma,28.8 µM
same,TGI,NCI-H226 lung,34.5 µM
same,TGI,MOLT-4 leukemia,2.25 µM
same,TGI,UACC-62 melanoma,31.5 µM
same,TGI,UO-31 renal,22.3 µM
same,TGI,RXF 393 renal,9.4 µM
same,TGI,NCI-H522 lung,14.4 µM
same,TGI,EKVX NSCLC,40 µM
same,TGI,MALME-3M melanoma,20.2 µM
same,TGI,MDA-MB-231 breast,52.1 µM
same,TGI,DMS 273 small cell lung,44.2 µM

# Source: PubChem BioAssay (NCI)
